Measured values as given in ChEMBL document CHEMBL5046218, “Novel Dual-Target μ-Opioid Receptor and Dopamine D3 Receptor Ligands as Potential Nonaddictive Pharmacotherapeutics for Pain Management” (J Med Chem, 2021).
Activity calls are given as the source filed them. The rule behind the calls is not given here.

Columns and labels:
D(2) dopamine receptor [1] = biological target: T1, D(2) dopamine receptor (Homo sapiens, UniProt P14416); assay: Displacement of [3H]-N-methylspiperone from human dopamine D2 receptor expressed in HEK293 cell membranes incubated for 60 mins by microbeta scintillation counting analysis; parameters: species or system Membrane
T1 sequence (P14416 whole entry): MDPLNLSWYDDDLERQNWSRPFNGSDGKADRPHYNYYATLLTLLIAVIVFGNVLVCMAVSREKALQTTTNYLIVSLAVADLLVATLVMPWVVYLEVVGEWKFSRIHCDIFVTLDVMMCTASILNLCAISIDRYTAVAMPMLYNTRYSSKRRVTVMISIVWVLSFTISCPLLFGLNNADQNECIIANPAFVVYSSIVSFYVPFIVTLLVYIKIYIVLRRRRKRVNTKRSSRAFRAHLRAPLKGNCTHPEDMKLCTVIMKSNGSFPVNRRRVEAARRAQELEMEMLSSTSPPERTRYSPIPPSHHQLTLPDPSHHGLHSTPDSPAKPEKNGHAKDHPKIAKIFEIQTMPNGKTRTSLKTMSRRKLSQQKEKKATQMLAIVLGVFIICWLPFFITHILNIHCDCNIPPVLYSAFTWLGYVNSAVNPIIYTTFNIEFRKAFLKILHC

D(3) dopamine receptor [2] = biological target: T2, D(3) dopamine receptor (Homo sapiens, UniProt P35462); assay: Displacement of [3H]-N-methylspiperone from human dopamine D3 receptor expressed in HEK293 cell membranes incubated for 60 mins by microbeta scintillation counting analysis; parameters: species or system Membrane
T2 sequence (P35462 whole entry): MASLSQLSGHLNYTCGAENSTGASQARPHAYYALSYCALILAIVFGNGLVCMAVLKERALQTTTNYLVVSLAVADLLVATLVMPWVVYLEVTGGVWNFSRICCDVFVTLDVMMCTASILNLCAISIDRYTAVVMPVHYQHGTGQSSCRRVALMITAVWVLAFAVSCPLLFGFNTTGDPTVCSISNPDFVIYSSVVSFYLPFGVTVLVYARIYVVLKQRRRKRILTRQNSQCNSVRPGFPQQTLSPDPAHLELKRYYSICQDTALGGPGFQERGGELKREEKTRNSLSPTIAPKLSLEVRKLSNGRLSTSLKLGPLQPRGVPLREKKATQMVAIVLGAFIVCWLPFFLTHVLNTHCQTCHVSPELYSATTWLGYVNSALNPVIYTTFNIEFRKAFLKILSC

D(4) dopamine receptor = biological target: T3, D(4) dopamine receptor (Homo sapiens, UniProt P21917); assay: Displacement of [3H]-N-methylspiperone from human dopamine D4 receptor expressed in HEK293 cell membranes incubated for 60 mins by microbeta scintillation counting analysis; parameters: species or system Membrane
T3 sequence (P21917 whole entry): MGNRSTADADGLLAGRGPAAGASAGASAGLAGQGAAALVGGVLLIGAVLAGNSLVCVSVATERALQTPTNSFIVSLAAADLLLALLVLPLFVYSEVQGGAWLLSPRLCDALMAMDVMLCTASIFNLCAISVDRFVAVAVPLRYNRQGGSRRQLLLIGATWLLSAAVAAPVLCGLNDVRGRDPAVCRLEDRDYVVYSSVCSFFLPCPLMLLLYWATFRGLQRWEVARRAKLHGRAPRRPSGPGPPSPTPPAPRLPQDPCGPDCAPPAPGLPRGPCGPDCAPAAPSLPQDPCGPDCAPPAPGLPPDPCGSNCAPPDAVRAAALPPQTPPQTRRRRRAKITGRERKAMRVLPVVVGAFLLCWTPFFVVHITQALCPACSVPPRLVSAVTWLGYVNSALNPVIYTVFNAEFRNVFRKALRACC

D(2) dopamine receptor [3] = biological target: T1, D(2) dopamine receptor; assay: Displacement of [3H]-(R)-(+)7-OH-DPAT from human dopamine D2 receptor expressed in HEK293 cell membranes incubated for 90 mins by microbeta scintillation counting analysis; parameters: species or system Membrane
D(3) dopamine receptor [4] = biological target: T2, D(3) dopamine receptor; assay: Displacement of [3H]-(R)-(+)7-OH-DPAT from human dopamine D3 receptor expressed in HEK293 cell membranes incubated for 90 mins by microbeta scintillation counting analysis; parameters: species or system Membrane
[5] = biological target: Mu-type opioid receptor (Homo sapiens) (UniProt P35372); settings: HEK293T, time 10.0 min
Chain of Mu-type opioid receptor (Homo sapiens) (P35372 whole entry): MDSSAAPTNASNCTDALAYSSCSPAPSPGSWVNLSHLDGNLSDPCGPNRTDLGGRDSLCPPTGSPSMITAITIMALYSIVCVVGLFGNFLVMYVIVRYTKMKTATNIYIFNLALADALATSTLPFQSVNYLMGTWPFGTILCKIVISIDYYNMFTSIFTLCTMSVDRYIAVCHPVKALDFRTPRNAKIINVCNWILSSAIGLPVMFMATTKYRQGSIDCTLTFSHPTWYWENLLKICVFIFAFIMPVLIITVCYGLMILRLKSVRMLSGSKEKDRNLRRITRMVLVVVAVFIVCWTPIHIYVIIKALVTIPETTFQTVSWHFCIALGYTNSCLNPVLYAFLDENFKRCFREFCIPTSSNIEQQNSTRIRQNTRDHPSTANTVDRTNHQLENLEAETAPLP

[6] = biological target: Mu-type opioid receptor (Homo sapiens) (UniProt P35372); settings: HEK293T, time 10.0 min; remark: listed apart in the source
[7] = biological target: Mu-type opioid receptor (Homo sapiens) (UniProt P35372); settings: HEK293T, time 10.0 min; remark: listed apart in the source
D(3) dopamine receptor [8] = biological target: T2, D(3) dopamine receptor; assay: Antagonist activity at human […] expressed in HEK293T cells assessed as GalphaoA activation preincubated with compound in D-PBS for 3 hrs followed by coelenterazine addition for 5 mins once again compound addition for 10 mins by BRET assay; assay type: functional, cell-based
D(3) dopamine receptor [9] = biological target: T2, D(3) dopamine receptor; settings: HEK293T, time 10.0 min

| Structure (SMILES) | Ki (D(2) dopamine receptor [1]) [nM] | Ki (D(3) dopamine receptor [2]) [nM] | Ki (D(4) dopamine receptor) [nM] | also measured |
| --- | --- | --- | --- | --- |
| CCc1cccc(N2CCN(CCCCNCCC(C(=O)N(C)C)(c3ccccc3)c3ccccc3)CC2)c1Cl | 62.1 | 17.8 | 503 | Ki (D(2) dopamine receptor [3]): 44.2 nM; Ki (D(3) dopamine receptor [4]): 38.3 nM |
| Oc1cccc([C@]23CCC[C@H](NCC2)[C@@H]3O)c1 | > 100000 | > 100000 | > 100000 | Ki (D(2) dopamine receptor [3]): > 100000 nM; Ki (D(3) dopamine receptor [4]): > 100000 nM |
| CCOC(=O)/C=C1\[C@@H]2CCC[C@@]1(c1cccc(O)c1)CCN2C[C@@H]1C[C@H]1CCNC(=O)c1cc2ccccc2[nH]1 (relative stereo) | 4860 | 2300 | 17600 | pEC50 [5]: inactive; pEC50 [6]: inactive; pEC50 [7]: inactive |
| CCc1cccc(N2CCN(CCC(C(=O)N(C)C)(c3ccccc3)c3ccccc3)CC2)c1Cl | 43 | 69 | 64.8 | Ki (D(2) dopamine receptor [3]): 20.3 nM; Ki (D(3) dopamine receptor [4]): 197 nM |
| CN(C)C(=O)C(CCNCCc1ccccc1)(c1ccccc1)c1ccccc1 | 3650 | 2080 | 12600 |  |
| O=C(NCCCCN1CC[C@]2(c3cccc(O)c3)CCC[C@H]1[C@H]2O)c1cc2ccccc2[nH]1 | 1310 |  | 3810 |  |
| CN(C)C(=O)C(CCN1CCN(c2cccc(Cl)c2Cl)CC1)(c1ccccc1)c1ccccc1 | 74.7 |  | 102 | Ki (D(2) dopamine receptor [3]): 31.3 nM |
| CCOC(=O)/C=C1\[C@@H]2CCC[C@@]1(c1cccc(O)c1)CCN2CC1CC1CCNC(=O)c1cc2ccccc2[nH]1 (stereo not given in full) | 3890 | 4350 | 23400 |  |
| CCOC(=O)/C=C1\[C@@H]2CCC[C@@]1(c1cccc(O)c1)CCN2 | > 100000 | > 100000 | > 100000 |  |
| CCc1cccc(N2CCN(CCC(c3cccc(OC)c3)c3cccc(OC)c3)CC2)c1Cl | 170 | 93.8 | 63.4 |  |
| CN(C)CCC(C#N)(c1ccccc1)c1ccccc1 | 17900 | 16100 | 23200 |  |
| CCOC(=O)/C=C1\[C@@H]2CCC[C@@]1(c1cccc(O)c1)CCN2CCN1CCN(c2cccc(Cl)c2Cl)CC1 | 51.6 |  | 1600 |  |
| CN(C)C(=O)C(CCN1CCC(O)(c2ccc(Cl)cc2)CC1)(c1ccccc1)c1ccccc1 [LOPERAMIDE] | 5790 | […] | 1850 |  |
| CN(C)C(=O)C(CCNCCCCN1CCN(c2cccc(Cl)c2Cl)CC1)(c1ccccc1)c1ccccc1 |  |  | 378 |  |
| CCc1cccc(N2CCN(CCC(c3cccc(O)c3)c3cccc(O)c3)CC2)c1Cl | 187 | 200 | 19.2 |  |
| CCOC(=O)/C=C1\[C@@H]2CCC[C@@]1(c1cccc(O)c1)CCN2CCCCNC(=O)c1cc2ccccc2[nH]1 | 2950 | 13700 | 13800 | pIC50 (D(3) dopamine receptor [8]): > 5; pEC50 [5]: inactive; pEC50 [6]: inactive; pEC50 [7]: inactive; pEC50 (D(3) dopamine receptor [9]): inactive |
| CCc1cccc(N2CCN(CCC(c3cccc(O)c3)c3cccc(OC)c3)CC2)c1Cl (stereo not given) | 190 |  | 38.5 |  |
| CCC(=O)N1CCC(c2ccccc2)(c2ccccc2)C1 | > 100000 | > 100000 | > 100000 |  |
| CCc1cc(Cl)c(OC)c(C(=O)NCC2CCCN2CC(=O)N2CCC(c3ccccc3)(c3ccccc3)C2)c1O (stereo not given) | 2380 | 288 | 31000 |  |
| CCC(=O)C(CC(C)N(C)C)(c1ccccc1)c1ccccc1 (stereo not given) [METHADONE] | > 100000 | 2110 | 26200 |  |
| N#CC(CCNCCCCC(=O)N1CCN(c2cccc(Cl)c2Cl)CC1)(c1ccccc1)c1ccccc1 | 1940 | 1360 | 3930 |  |
| CN(C)CCC(C(=O)NCCCCN1CCN(c2cccc(Cl)c2Cl)CC1)(c1ccccc1)c1ccccc1 | 42.7 | 11.8 | 466 |  |
